These results are taken from patent publication US20090148850A1, “Methods for identifying modulators of P2RY14” (priority 2007, published 2009).

The test system of experiment [1] is simian (chimpanzee) P2RY14. The experiment in a line: CellKey System live cell functional assay, simian P2RY14. The experiment is classed as cell-based. The settings on record: HEK cells expressing simian P2RY14 and Gqi5. The procedure: (§1) The Cellkey System™ (MDS Sciex), a novel, live cell, label-free, real-time technology, was used to examine P2RY14 activation following agonist stimulation. The CellKey System™ is based on cellular dielectric spectroscopy (CDS) and monitors changes in impedance of the applied electrical current through the cell monolayer upon receptor activation.
(§2) On the following day, growth medium was removed from the cell monolayer and replaced with 135 μl of HBSS pH 7.4 containing 20 mM Hepes for a 30 minutes pre-incubation period at room temperature. Baseline measurements were made for 5 minutes at 28° C. prior to ligand addition. For agonist assays, 15 μl of 10× agonist diluted in HBSS pH 7.4 containing 20 mM HEPES was added to the cell monolayer simultaneously using the 96 multichannel head from the CellKey™ System. Cellular response was monitored for 10 minutes to assess cellular response after ligand addition.

A further experiment addresses T1, mouse P2RY14 (Mus musculus, UniProt Q9ESG6).
T1 construct: expressed in transfected cells
T1 sequence (Q9ESG6 1-338): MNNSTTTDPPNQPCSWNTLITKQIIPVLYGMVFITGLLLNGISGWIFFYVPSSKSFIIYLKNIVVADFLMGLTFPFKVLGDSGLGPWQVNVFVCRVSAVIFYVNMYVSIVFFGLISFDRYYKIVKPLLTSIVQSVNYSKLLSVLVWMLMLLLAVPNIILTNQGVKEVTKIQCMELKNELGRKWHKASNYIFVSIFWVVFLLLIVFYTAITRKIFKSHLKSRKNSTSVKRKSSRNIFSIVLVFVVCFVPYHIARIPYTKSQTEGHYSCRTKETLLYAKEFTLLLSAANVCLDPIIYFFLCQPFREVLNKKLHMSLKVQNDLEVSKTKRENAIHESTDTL
The experiment in a line: CellKey System live cell functional assay, mouse P2RY14. Conditions: HEK cells expressing mouse P2RY14 and Gqi5. Type of experiment: cell-based. The procedure:
as §1, §2

Another experiment deals with simian P2RY14. The experiment can be described thus: Membrane filtration binding assay, simian P2RY14. The arrangement: species or system chimpanzee. Conditions: simian P2RY14 membranes. The procedure: Membrane preparations were made by N2 cavitation using a Parr unit. […] Cell were Dounce homogenized (size B, 10 strokes) and then added to the cavitation unit. Pressure was adjusted to 800 psi and cells were left under pressure for 30 minutes. Broken cells were released drop by drop and spun at 1000 g for 10 minutes. Supernatent was spun at 160,000 g (rotor type 60 Ti, 40000 rpm for 30 min). Pellet was resuspended in 10 mM HEPES/KOH pH 7.4, 1 mM EDTA in ⅕ the original volume, dounce homogenized (size A, 10 strokes), aliquoted, and frozen at −80° C.
Binding assays were performed in 10 mM Hepes pH 7.4 (KOH), 5 mM MnCl2, 5 mM MgCl2 buffer. Membranes (10 μg/well for human P2RY14 and 30 μg/well for simian P2RY14) were incubated with 10 nM [5.6-^3H] Uridine 5′-triphosphate (UTP), ammonium salt from Amersham Biosciences (# TRK412) in presence of compounds diluted in DMSO (2% final in assay), in a total volume of 100 μl. 50 minutes (human P2RY14) or 60 minutes (simian) P2RY14) incubations were performed at room temperature with shaking. […] To examine the stability of [^3H]-UTP in the membrane filtration binding assay, 100 ul aliquots of the reaction mixture were extracted at 2, 10, 20, 40, 60 and 90 minutes with 100 uL of cold 80 mM EDTA solution (pH 8) and 200 uL of cold Acetonitrile. After mixing, proteins were precipitated by centrifugation at 13000 rpm for 10 minutes at 4° C. […] After 0.5 min at 10:90 50 mM KH2PO4/750 mM KH2PO4, a gradient was applied in order to increase to 100% 750 mM KH2PO4 at 5 min, after which this composition was maintained for an additional 3 min. Samples were kept at 4° C. prior to HPLC analysis

In experiment [2] the target is T2, P2RY14 (Homo sapiens, UniProt Q15391).
T2 sequence (Q15391 1-338): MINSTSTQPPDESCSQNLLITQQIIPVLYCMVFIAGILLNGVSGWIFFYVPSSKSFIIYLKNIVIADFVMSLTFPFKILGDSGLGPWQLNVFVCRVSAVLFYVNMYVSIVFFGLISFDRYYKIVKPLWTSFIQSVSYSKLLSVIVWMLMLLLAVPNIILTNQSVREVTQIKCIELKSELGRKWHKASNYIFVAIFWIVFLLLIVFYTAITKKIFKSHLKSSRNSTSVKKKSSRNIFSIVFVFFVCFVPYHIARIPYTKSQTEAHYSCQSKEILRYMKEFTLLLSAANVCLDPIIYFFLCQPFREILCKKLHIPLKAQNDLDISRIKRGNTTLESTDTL
The experiment can be described thus: CellKey System live cell functional assay, human P2RY14. The experiment is classed as cell-based. Set-up: expressed in transfected cells. The settings on record: HEK cells expressing human P2RY14 and Gqi5. The procedure:
as §1, §2

Experiment [3] addresses T2, P2RY14. The arrangement: host or cells: yeast and HEK-293 cells (Chambers et al., J. Biol. Chem. 275: 10767-10771 (2000)). The settings on record: yeast and mammalian cells, Chambers et al. 2000; cited from earlier work.

Regarding `O=c1ccn([C@@H]2O[C@H](COP(=O)(O)O)[C@@H](O)[C@H]2O)c(=O)[nH]1` [UMP], the “P2RY14 signaling (impedance, CellKey)” value (in experiment [1]; on mouse P2RY14; at P2RY14 [2]) was “mediated signaling” throughout. Further, the “competition for [3H]-UTP/[3H]-UDP binding” value in the experiment on simian P2RY14 is “able to successfully compete”. For the same compound, the Ki on simian P2RY14 (10 nM radioligand, read-out: Ki, competition for [3H]-UTP/[3H]-UDP binding) was about 1000 nM. For the same compound, the “activation of P2RY14” value at P2RY14 [3] was “unable to activate”.
